Test results: ChEMBL document CHEMBL5291721, “A preclinical secondary pharmacology resource illuminates target-adverse drug reaction associations of marketed drugs” (Nat Commun, 2023)

Legend:
Bile salt export pump = Bile salt export pump (Homo sapiens, UniProt O95342); assay type: functional
Thromboxane A2 receptor = target: T1, Thromboxane A2 receptor (Homo sapiens, UniProt P21731); assay type: functional, cell-based
T1 sequence (P21731 whole entry): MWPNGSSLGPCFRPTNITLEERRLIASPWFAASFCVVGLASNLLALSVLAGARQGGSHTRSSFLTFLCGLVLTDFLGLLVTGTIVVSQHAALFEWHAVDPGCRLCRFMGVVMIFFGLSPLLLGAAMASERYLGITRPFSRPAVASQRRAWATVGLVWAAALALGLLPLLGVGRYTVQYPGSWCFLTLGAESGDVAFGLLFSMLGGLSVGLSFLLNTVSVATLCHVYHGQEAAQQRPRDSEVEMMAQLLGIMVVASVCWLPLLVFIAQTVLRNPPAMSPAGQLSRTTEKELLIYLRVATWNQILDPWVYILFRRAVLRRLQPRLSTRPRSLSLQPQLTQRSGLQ

[1] = target: T2, Muscarinic acetylcholine receptor M2 (Homo sapiens, UniProt P08172); assay type: functional, cell-based
T2 sequence (P08172 whole entry): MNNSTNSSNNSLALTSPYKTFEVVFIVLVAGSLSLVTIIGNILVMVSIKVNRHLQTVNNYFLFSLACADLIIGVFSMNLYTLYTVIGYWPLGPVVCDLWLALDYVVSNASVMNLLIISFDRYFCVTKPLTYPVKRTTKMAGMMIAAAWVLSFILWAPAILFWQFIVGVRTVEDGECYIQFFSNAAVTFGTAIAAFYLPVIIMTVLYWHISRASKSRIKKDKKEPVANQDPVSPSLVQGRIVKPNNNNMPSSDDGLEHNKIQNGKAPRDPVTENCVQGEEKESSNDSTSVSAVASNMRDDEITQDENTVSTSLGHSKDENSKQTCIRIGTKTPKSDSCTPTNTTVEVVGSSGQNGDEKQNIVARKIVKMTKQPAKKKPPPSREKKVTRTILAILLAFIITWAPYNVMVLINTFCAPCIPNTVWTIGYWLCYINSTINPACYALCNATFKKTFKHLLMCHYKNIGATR

[2] = target: 5-hydroxytryptamine receptor 2B (Homo sapiens, UniProt P41595); assay type: functional, cell-based
Chain of 5-hydroxytryptamine receptor 2B (P41595 whole entry): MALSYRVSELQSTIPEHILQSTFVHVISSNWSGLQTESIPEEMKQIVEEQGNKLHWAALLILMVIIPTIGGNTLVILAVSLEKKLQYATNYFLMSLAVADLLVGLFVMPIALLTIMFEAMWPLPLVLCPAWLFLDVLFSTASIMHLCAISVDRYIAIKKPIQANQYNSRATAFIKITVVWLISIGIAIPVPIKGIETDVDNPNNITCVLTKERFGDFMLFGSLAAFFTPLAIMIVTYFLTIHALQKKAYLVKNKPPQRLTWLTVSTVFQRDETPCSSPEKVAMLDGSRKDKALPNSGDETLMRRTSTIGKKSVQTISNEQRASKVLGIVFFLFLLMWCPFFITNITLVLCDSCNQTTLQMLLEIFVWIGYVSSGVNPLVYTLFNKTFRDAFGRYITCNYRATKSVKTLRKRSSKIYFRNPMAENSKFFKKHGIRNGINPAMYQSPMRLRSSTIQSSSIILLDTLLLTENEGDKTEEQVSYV

[3] = target: T3, Prostaglandin G/H synthase 1 (Rattus norvegicus, UniProt Q63921); assay type: functional
T3 sequence (Q63921 whole entry): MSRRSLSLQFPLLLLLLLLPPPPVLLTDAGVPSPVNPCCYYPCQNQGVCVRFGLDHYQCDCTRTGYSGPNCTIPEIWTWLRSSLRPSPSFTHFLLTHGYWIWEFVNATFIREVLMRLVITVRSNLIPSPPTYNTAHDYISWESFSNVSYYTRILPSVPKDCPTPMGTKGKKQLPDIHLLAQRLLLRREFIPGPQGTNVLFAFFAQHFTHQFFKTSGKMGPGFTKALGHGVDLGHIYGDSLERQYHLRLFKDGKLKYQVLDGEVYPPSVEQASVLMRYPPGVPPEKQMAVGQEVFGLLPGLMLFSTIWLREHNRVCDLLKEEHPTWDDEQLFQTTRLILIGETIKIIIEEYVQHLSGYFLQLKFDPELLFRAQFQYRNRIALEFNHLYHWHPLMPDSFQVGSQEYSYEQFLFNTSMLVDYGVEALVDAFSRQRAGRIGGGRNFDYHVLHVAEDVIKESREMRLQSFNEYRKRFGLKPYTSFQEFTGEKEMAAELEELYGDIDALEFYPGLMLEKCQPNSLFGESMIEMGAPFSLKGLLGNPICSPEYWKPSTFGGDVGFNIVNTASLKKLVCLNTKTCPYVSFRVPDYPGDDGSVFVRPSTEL

Vasopressin V2 receptor = Vasopressin V2 receptor (Homo sapiens, UniProt P30518)
Chain of Vasopressin V2 receptor (P30518 whole entry): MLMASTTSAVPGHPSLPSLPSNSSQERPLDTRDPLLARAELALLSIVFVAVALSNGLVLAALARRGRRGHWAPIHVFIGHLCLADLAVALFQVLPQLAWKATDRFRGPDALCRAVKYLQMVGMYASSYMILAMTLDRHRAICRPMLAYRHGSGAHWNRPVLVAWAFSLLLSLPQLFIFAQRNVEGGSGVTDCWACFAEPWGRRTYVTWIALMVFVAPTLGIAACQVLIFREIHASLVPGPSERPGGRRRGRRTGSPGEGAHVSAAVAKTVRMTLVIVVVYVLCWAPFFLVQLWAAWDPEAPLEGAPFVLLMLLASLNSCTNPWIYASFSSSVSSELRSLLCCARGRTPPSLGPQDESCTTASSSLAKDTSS

Adenosine receptor A1 = target: T4, Adenosine receptor A1 (Homo sapiens, UniProt P30542)
T4 sequence (P30542 whole entry): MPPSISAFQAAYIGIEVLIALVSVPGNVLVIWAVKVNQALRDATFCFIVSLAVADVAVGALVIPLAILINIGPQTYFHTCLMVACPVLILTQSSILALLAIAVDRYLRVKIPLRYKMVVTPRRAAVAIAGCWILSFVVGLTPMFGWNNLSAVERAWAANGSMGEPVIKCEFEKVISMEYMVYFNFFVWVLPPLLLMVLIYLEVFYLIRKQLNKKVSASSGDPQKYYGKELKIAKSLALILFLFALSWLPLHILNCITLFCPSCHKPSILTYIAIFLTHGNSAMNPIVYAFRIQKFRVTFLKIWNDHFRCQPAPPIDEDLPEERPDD

[4] = target: Voltage-dependent L-type calcium channel subunit alpha-1C (Rattus norvegicus, UniProt P22002); assay type: functional
Chain of Voltage-dependent L-type calcium channel subunit alpha-1C (P22002 whole entry): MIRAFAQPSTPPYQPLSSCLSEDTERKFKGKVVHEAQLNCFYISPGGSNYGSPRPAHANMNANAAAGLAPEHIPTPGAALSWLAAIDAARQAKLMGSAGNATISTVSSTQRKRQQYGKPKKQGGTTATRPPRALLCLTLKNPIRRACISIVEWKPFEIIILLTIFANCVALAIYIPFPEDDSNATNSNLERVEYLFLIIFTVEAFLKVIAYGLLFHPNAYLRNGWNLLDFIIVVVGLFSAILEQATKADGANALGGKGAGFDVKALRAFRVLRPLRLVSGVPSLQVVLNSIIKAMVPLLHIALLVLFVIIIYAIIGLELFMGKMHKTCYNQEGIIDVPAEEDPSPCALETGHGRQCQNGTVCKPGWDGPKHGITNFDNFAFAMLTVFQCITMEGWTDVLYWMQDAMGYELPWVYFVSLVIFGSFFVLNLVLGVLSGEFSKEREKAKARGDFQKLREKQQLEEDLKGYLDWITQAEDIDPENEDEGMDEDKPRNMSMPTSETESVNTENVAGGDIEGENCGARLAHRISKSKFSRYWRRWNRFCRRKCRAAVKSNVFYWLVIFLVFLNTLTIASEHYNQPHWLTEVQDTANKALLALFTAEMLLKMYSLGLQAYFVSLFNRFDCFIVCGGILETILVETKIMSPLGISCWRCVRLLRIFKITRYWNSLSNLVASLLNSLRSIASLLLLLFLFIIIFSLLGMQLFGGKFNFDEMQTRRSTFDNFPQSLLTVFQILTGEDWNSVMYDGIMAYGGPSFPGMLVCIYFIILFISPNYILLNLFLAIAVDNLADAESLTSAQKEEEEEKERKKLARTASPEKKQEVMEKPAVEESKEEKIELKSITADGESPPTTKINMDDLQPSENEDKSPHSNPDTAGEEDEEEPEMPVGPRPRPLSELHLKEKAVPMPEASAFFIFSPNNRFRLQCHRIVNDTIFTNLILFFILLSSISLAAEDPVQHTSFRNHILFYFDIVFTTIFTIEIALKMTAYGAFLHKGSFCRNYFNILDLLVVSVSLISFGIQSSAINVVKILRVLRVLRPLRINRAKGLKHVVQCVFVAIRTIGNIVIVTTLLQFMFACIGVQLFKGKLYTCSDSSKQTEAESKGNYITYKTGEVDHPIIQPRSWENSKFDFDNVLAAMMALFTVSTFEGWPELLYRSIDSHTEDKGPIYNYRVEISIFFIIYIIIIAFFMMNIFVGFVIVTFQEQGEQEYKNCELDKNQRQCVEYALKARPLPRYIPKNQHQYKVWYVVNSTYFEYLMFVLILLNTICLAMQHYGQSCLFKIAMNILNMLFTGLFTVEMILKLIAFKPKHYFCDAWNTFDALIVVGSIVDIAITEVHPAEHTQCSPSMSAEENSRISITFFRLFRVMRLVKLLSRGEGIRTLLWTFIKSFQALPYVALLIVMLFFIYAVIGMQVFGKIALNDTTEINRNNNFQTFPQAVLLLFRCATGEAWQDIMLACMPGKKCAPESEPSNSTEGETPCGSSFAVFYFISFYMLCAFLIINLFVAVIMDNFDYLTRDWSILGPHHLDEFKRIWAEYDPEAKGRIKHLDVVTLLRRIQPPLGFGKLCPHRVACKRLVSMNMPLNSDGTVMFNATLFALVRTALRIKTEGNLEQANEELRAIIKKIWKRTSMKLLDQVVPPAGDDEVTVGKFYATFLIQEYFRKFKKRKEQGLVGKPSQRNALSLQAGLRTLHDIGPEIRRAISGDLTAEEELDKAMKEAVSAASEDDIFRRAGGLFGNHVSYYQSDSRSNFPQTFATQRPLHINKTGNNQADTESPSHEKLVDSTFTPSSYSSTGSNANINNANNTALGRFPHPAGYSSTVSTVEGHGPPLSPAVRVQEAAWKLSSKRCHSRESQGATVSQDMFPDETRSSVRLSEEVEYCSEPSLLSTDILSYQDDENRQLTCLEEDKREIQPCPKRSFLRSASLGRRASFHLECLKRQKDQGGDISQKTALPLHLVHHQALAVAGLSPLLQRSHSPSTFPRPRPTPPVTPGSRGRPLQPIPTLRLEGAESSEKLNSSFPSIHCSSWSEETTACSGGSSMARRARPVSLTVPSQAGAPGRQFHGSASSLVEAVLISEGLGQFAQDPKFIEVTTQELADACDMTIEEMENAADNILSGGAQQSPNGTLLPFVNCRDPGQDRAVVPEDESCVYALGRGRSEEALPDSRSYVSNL

Histamine H3 receptor = Histamine H3 receptor (Homo sapiens, UniProt Q9Y5N1)
Chain of Histamine H3 receptor (Q9Y5N1 whole entry): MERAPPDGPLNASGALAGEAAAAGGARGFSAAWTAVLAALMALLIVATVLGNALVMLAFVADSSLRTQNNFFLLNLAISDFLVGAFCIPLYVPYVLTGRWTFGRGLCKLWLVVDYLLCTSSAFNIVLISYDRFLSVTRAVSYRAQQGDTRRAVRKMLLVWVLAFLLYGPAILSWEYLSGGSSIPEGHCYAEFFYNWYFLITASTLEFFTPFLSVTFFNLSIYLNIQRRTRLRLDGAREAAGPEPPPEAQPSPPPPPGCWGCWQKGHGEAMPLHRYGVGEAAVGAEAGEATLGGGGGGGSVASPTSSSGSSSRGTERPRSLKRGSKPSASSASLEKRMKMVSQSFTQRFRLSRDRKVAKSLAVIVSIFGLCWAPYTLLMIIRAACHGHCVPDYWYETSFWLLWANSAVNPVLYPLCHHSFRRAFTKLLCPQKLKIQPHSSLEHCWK
Further: assay procedure not described here.

Chain of Bile salt export pump (O95342 whole entry): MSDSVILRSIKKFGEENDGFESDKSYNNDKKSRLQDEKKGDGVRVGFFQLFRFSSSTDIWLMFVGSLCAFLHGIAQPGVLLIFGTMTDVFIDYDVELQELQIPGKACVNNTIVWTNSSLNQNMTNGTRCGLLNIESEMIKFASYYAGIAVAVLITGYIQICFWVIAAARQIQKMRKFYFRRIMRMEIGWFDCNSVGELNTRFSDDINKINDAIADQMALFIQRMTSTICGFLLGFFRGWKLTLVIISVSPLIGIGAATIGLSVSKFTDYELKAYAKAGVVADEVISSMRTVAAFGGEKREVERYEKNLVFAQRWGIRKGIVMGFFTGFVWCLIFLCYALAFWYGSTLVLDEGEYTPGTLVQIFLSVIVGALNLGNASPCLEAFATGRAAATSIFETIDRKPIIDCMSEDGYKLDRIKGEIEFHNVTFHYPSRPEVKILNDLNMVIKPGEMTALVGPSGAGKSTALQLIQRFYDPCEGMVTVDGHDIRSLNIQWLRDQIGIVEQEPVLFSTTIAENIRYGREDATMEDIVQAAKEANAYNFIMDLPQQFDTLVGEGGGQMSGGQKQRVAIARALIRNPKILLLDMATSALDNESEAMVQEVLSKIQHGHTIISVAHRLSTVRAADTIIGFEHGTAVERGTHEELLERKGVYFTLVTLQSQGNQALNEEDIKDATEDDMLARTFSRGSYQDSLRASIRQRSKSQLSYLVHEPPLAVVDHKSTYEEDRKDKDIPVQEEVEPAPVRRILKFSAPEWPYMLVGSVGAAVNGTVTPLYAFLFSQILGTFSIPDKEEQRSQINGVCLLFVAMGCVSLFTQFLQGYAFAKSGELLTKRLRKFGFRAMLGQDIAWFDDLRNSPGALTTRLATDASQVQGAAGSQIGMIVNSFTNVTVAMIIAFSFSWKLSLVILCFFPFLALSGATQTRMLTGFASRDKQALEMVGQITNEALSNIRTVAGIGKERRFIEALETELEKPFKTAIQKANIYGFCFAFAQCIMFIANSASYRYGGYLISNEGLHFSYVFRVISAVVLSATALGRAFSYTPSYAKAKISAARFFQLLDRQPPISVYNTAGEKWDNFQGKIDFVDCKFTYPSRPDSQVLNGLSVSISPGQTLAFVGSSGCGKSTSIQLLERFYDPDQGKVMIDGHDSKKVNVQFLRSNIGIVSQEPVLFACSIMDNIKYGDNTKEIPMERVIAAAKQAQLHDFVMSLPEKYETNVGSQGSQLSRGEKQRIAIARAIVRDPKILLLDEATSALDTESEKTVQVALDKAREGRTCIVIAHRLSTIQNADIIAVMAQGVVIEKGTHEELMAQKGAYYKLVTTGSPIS

| Compound | AC50 (Bile salt export pump) [µM] | AC50 (Thromboxane A2 receptor) [µM] | AC50 [1] [µM] | AC50 [2] [µM] | AC50 [3] [µM] | AC50 (Vasopressin V2 receptor) [µM] | AC50 (Adenosine receptor A1) [µM] | AC50 [4] [µM] | AC50 (Histamine H3 receptor) [µM] |
| --- | --- | --- | --- | --- | --- | --- | --- | --- | --- |
| O=C(O)[C@@H](S)[C@@H](S)C(=O)O | 50 | > 30 |  |  |  |  |  |  |  |
| C=CC1=C(C(=O)O)N2C(=O)[C@@H](NC(=O)/C(=N\O)c3csc(N)n3)[C@H]2SC1 | > 300 |  | > 10 | > 10 | > 30 | > 30 | > 30 | > 10 | > 10 |
| O=C(O)COC(=O)Cc1ccccc1Nc1c(Cl)cccc1Cl [ACECLOFENAC] | 130 |  | > 10 | > 10 | > 30 | > 30 | > 30 | > 10 | > 10 |
| CN(C)CCc1c[nH]c2ccc(CS(=O)(=O)N3CCCC3)cc12 [ALMOTRIPTAN] | > 300 |  | > 30 | > 30 | > 30 | > 30 | > 30 |  | > 30 |
| CC[N+](CC)(CCNC(=O)C(=O)NCC[N+](CC)(CC)Cc1ccccc1Cl)Cc1ccccc1Cl [AMBENONIUM] | > 300 |  | 2.2 | > 30 | > 30 | > 30 | > 30 | > 30 | 21 |
| NCCCNCCSP(=O)(O)O [AMIFOSTINE] | > 300 |  | > 30 | > 30 | > 30 | > 30 | > 30 |  | > 30 |
| NCCCCCC(=O)O [AMINOCAPROIC ACID] | > 300 |  | > 10 | > 10 | > 10 | > 10 | > 10 | > 10 | > 10 |
| CC(C)C[C@H](NC(=O)[C@H](Cc1ccccc1)NC(=O)c1cnccn1)B(O)O [BORTEZOMIB] | > 300 |  | > 30 | > 30 | > 30 | > 30 | > 30 | > 30 | > 30 |
| C[C@H](CS)C(=O)N1CCC[C@H]1C(=O)O [CAPTOPRIL] | > 300 |  | > 10 | > 10 | > 30 | > 30 | > 30 | > 10 | > 10 |
| CN(C)CCOC(c1ccc(Cl)cc1)c1ccccn1 (stereo not drawn) [CARBINOXAMINE] | > 300 |  | 26 | > 30 | > 30 | > 30 | > 30 |  | 3.5 |
| CCN(CC)CCn1c(=O)c(Cc2ccc(OC)cc2)nc2ccccc21 [CAROVERINE] | > 300 |  | > 30 | > 30 | 15.8 | > 30 | > 30 | > 30 | 2.38 |
| CC(C)/N=c1\cc2n(-c3ccc(Cl)cc3)c3ccccc3nc-2cc1Nc1ccc(Cl)cc1 [CLOFAZIMINE] | 12 |  | > 30 | > 30 | > 30 | > 30 | > 30 | 5 | > 30 |
| O=P1(N(CCCl)CCCl)NCCCO1 (stereo not drawn) [CYCLOPHOSPHAMIDE ANHYDROUS] | > 300 | > 30 |  |  |  |  |  |  |  |
| C[C@H](Nc1ncnc2[nH]cnc12)c1cc2cccc(Cl)c2c(=O)n1-c1ccccc1 [DUVELISIB] | 45 | > 30 | > 30 | > 30 | > 30 |  | > 30 |  | > 30 |
| COC(=O)CCc1ccc(OCC(O)CNC(C)C)cc1 (stereo not drawn) [ESMOLOL] | > 300 |  | > 30 | > 30 | > 30 | > 30 | > 30 | > 30 | > 30 |
| O=c1[nH]c2ccccc2n1CCN1CCN(c2cccc(C(F)(F)F)c2)CC1 [FLIBANSERIN] | 29 | > 30 |  |  |  |  |  |  |  |
| C[C@]12CCC(=O)C=C1CC[C@H]1[C@@H]3CC[C@](O)(C(=O)CO)[C@@]3(C)C[C@H](O)[C@@]12F [FLUDROCORTISONE] | > 300 |  | > 30 | > 10 | > 30 | > 30 | > 30 | > 10 | > 10 |
| CCOC(=O)Nc1ccc(NCc2ccc(F)cc2)nc1N [FLUPIRTINE] | 85 |  | > 30 | > 30 |  | > 30 | > 30 | > 30 | > 30 |
| CCN(CCO)CCCC(C)Nc1ccnc2cc(Cl)ccc12 (stereo not drawn) [HYDROXYCHLOROQUINE] | > 300 |  | > 10 | > 10 | > 10 | > 10 | > 10 | > 10 |  |
| OCCOCCN1CCN(C(c2ccccc2)c2ccc(Cl)cc2)CC1 (stereo not drawn) [HYDROXYZINE] | 270 |  | > 10 | 2.2 | > 30 | > 30 | > 30 | > 10 | > 10 |
| Nc1nnc(-c2cccc(Cl)c2Cl)c(N)n1 [LAMOTRIGINE] | > 300 |  | > 10 | > 10 | > 30 | > 30 | > 30 |  | > 10 |
| N[C@@H](Cc1cc(I)c(Oc2cc(I)c(O)c(I)c2)c(I)c1)C(=O)O [LEVOTHYROXINE] | > 300 |  | > 30 | > 30 | > 30 | > 30 | > 30 |  | > 30 |
| CC(=O)NC[C@H]1CN(c2ccc(N3CCOCC3)c(F)c2)C(=O)O1 [LINEZOLID] | > 300 |  |  |  | > 30 | > 30 | > 30 |  | > 30 |
| O=NN(CCCl)C(=O)NC1CCCCC1 [LOMUSTINE] | > 300 | > 30 |  |  |  |  |  |  |  |
| O=C1[C@@H]2[C@H]3CC[C@H](C3)[C@@H]2C(=O)N1C[C@@H]1CCCC[C@H]1CN1CCN(c2nsc3ccccc23)CC1 [LURASIDONE] | 13 | > 30 |  | 0.071 | > 30 |  | > 30 |  | > 30 |
| CNC1(C)C2CCC(C2)C1(C)C (stereo not drawn) [MECAMYLAMINE] | > 300 |  | > 10 | > 10 | > 10 | > 10 | > 10 | > 10 |  |
| CS(=O)(=O)Nc1ccc([N+](=O)[O-])cc1Oc1ccccc1 [NIMESULIDE] | 110 | > 30 | > 30 |  | > 30 | 26 |  |  | > 30 |
| CCC1(c2ccccc2)C(=O)NCNC1=O [PRIMIDONE] | > 300 |  | > 10 | > 10 | > 10 | > 10 | > 10 | > 10 |  |
